Test results reported in paper PMC3082971 (Biochemistry, 2011).

Biological target: T1, hVDAC2 (Homo sapiens, UniProt P45880)
T1 sequence (P45880 2-294): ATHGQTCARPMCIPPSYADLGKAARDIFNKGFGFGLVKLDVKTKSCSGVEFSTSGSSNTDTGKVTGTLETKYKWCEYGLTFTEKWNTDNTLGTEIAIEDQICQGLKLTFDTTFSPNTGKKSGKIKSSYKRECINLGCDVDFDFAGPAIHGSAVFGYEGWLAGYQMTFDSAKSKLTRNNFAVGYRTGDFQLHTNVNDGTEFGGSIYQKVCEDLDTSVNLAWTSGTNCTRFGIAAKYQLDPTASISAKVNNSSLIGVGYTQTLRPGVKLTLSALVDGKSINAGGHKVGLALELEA
Experiment: biochemical

Question: With CCOc1ccccc1-n1c(C(C)N2CCN(C(=O)COc3ccc(Cl)cc3)CC2)nc2ccccc2c1=O (stereo not shown) [erastin] as the molecule, how does the EC50 read?
Answer: 52.6 ± 28.2 nM
